Measurements as given in patent publication US11214803B2, “Modulators of YAP1 expression” (Ionis Pharmaceuticals, Inc., priority 2019, dated 2022).
Strand notation (5' to 3'): a small letter for the sugar, then the base; units joined by * are phosphorothioate-linked, units joined directly phosphodiester-linked; [ ] holds rarer units or linkages, { } end groups; capitals alone tell only the bases. k = constrained ethyl (cEt); [5mC] = 5-methylcytosine; d = 2'-deoxy (DNA)

Tested on: Yap1 mRNA
Experiment: Antisense inhibition of human Yap1 in A-431 cells by cEt gapmers, single dose (Example 4, RTS4814)
Type: cell-based
Protocol: Modified oligonucleotides were designed to target a Yap1 nucleic acid and were tested for their effect on Yap1 mRNA level in vitro. The modified oligonucleotides were tested in a series of experiments that had similar culture conditions. Cultured A-431 cells at a density of 5,000 cells per well were treated using free uptake with 2,000 nM of modified oligonucleotide. After a treatment period of approximately 48 hours, RNA was isolated from the cells and Yap1 mRNA levels were measured by quantitative real-time RTPCR. Human primer probe set RTS4814 was used to measure mRNA levels. Yap1 mRNA levels were normalized to total RNA content, as measured by RIBOGREEN®. Results are presented in the tables below as percent control of the amount of Yap1 mRNA relative to untreated control cells (% UTC). The modified oligonucleotides with percent control values marked with an asterisk (*) target the amplicon region of the primer probe set. Additional assays may be used to measure the potency and efficacy of the modified oligonucleotides targeting the amplicon region.
The newly designed modified oligonucleotides in the Tables below were designed as 3-10-3 cEt gapmers. The gapmers are 16 nucleosides in length, wherein the central gap segment comprises of ten 2′-deoxynucleosides and is flanked by wing segments on the 5′ direction and the 3′ direction comprising three nucleosides each. Each nucleoside in the 5′ wing segment and each nucleoside in the 3′ wing segment has a cEt sugar modification. The internucleoside linkages throughout each gapmer are phosphorothioate (P═S) linkages. All cytosine residues throughout each gapmer are 5-methylcytosines.
“Start site” indicates the 5′-most nucleoside to which the gapmer is targeted in the human gene sequence. “Stop site” indicates the 3′-most nucleoside to which the gapmer is targeted human gene sequence. […] Activity of the modified oligonucleotide may be defined in a different experiment.

[1] = Yap1 mRNA remaining as percent of untreated control, 3-10-3 cEt gapmers, A-431 cells, Table 36
[2] = Table 16, A-431 cells, 5,000 cells per well, free uptake, 2,000 nM, approximately 48 hours, RTS4814, normalized to RIBOGREEN, Yap1 mRNA relative to untreated control cells
[3] = Table 15, A-431 cells, 5,000 cells per well, free uptake, 2,000 nM, approximately 48 hours, RTS4814, normalized to RIBOGREEN, Yap1 mRNA relative to untreated control, * = targets amplicon region of primer probe set
[4] = Table 17, A-431 cells, 5,000 cells per well, free uptake, 2,000 nM, approximately 48 hours, RTS4814, normalized to RIBOGREEN, Yap1 mRNA relative to untreated control cells
[5] = Table 14, A-431 cells, 5,000 cells per well, free uptake, 2,000 nM, approximately 48 hours, RTS4814, normalized to RIBOGREEN, Yap1 mRNA relative to untreated control, * = targets amplicon region of primer probe set
[6] = Yap1 mRNA remaining as percent of untreated control, 3-10-3 cEt gapmers, A-431 cells, Table 37

## 1075158 (k[5mC]*kG*kG*d[5mC]*dA*dA*dA*dA*dA*d[5mC]*dA*dA*dA*kA*kT*k[5mC]; antisense) [compound 1075158]
[1]
  YAP1 (% UTC): 76 % UTC

## 1075394 (kT*k[5mC]*kT*dT*dA*dA*d[5mC]*d[5mC]*dT*dA*dT*dG*d[5mC]*k[5mC]*kA*kA; antisense) [Compound 1075394]
[2]
  YAP1 (% UTC): 27 % UTC

## 1075265 (antisense kT*k[5mC]*kT*dG*dA*dA*dT*dA*dA*dT*dA*dT*dG*k[5mC]*kA*kG) [Compound 1075265]
[3]
  YAP1 (% UTC): 44 % UTC

## 1076259 (kA*kT*kT*dT*dA*dA*d[5mC]*dT*d[5mC]*d[5mC]*dT*dG*dA*kA*kG*kT; antisense) [Compound 1076259]
[4]
  YAP1 (% UTC): 61 % UTC

## 1075713 (kA*kA*kT*d[5mC]*dA*dA*d[5mC]*d[5mC]*dT*dT*dG*dT*dT*kA*kG*kA; antisense) [Compound 1075713]
[3]
  YAP1 (% UTC): 58 % UTC

## 1074784 (k[5mC]*k[5mC]*kA*dT*dA*dA*dG*dT*dA*dG*dA*dT*d[5mC]*kT*kA*kA; antisense) [Compound 1074784]
[5]
  YAP1 (% UTC): 25 % UTC

## 1074722 (antisense kA*kG*kG*dA*dA*dG*dA*dT*d[5mC]*dT*d[5mC]*d[5mC]*dA*kT*kA*kT) [Compound 1074722]
[2]
  YAP1 (% UTC): 57 % UTC

## 1076279 (k[5mC]*kA*kA*dT*dA*dA*dG*dG*dA*d[5mC]*dA*dG*dG*kA*k[5mC]*k[5mC]; antisense) [compound 1076279]
[6]
  YAP1 (% UTC): 71 % UTC

## 1075830 (kG*kA*kT*dG*dA*dA*d[5mC]*dA*d[5mC]*dT*d[5mC]*dA*dA*kT*kA*kG; antisense) [compound 1075830]
[1]
  YAP1 (% UTC): 12 % UTC

## 1074146 (antisense kG*kA*kA*dG*d[5mC]*dG*dG*d[5mC]*dG*dA*d[5mC]*dG*dG*k[5mC]*kT*kG) [Compound 1074146]
[2]
  YAP1 (% UTC): 91 % UTC

## 1074433 (antisense kA*kA*kG*dT*d[5mC]*dT*dG*dA*dG*dT*dA*dT*dT*kT*kA*kG) [Compound 1074433]
[3]
  YAP1 (% UTC): 5* % UTC

## 1074370 (antisense kT*kT*kG*dA*dT*dA*dG*dT*dA*dT*d[5mC]*dA*d[5mC]*k[5mC]*kT*kG) [Compound 1074370]
[2]
  YAP1 (% UTC): 8 % UTC

## 1074977 (antisense k[5mC]*kT*kT*dG*dT*dT*d[5mC]*dT*dA*dT*dT*dG*dG*kA*kA*kG) [Compound 1074977]
[3]
  YAP1 (% UTC): 94 % UTC

## 1074371 (antisense kG*kT*kT*dG*dA*dT*dA*dG*dT*dA*dT*d[5mC]*dA*k[5mC]*k[5mC]*kT) [Compound 1074371]
[4]
  YAP1 (% UTC): 31 % UTC

## 1074497 (k[5mC]*kA*kA*dT*dA*dA*d[5mC]*d[5mC]*dA*dT*d[5mC]*d[5mC]*d[5mC]*kA*kA*kG; antisense) [Compound 1074497]
[3]
  YAP1 (% UTC): 26 % UTC

## 1075681 (kT*kA*kA*dT*dT*dA*dT*dT*dA*d[5mC]*d[5mC]*d[5mC]*d[5mC]*kT*kT*k[5mC]; antisense) [Compound 1075681]
[3]
  YAP1 (% UTC): 37 % UTC

## 1074275 (antisense k[5mC]*kA*kA*dG*dA*dG*dG*dT*dG*dG*dT*d[5mC]*dT*kT*kG*kT) [Compound 1074275]
[4]
  YAP1 (% UTC): 73 % UTC

## 1076343 (antisense kA*kG*kA*d[5mC]*dT*dA*dA*dA*dT*d[5mC]*dT*dT*d[5mC]*k[5mC]*k[5mC]*kT) [compound 1076343]
[6]
  YAP1 (% UTC): 8 % UTC

## 1075011 (antisense kG*k[5mC]*kA*d[5mC]*dA*dA*dT*dA*dA*dT*d[5mC]*dG*dA*kA*k[5mC]*kA) [Compound 1075011]
[4]
  YAP1 (% UTC): 44 % UTC

## 1074274 (antisense kG*kT*kT*d[5mC]*dT*dT*dA*dT*dG*dG*dT*dT*dT*kA*kT*kA) [Compound 1074274]
[2]
  YAP1 (% UTC): 4 % UTC

## 1075446 (antisense k[5mC]*kT*kA*dT*dA*dA*dA*dT*d[5mC]*d[5mC]*dT*d[5mC]*dA*kT*kG*kT) [compound 1075446]
[1]
  YAP1 (% UTC): 87 % UTC

## 1076483 (antisense kA*k[5mC]*kG*dG*dG*dA*dA*dA*dT*d[5mC]*dA*dT*dA*kT*kA*kG) [Compound 1076483]
[4]
  YAP1 (% UTC): 5 % UTC

## 1075969 (kG*kT*kA*dT*dT*dT*dA*dA*dG*d[5mC]*d[5mC]*dA*dA*kA*k[5mC]*k[5mC]; antisense) [Compound 1075969]
[3]
  YAP1 (% UTC): 11 % UTC

## 1075587 (k[5mC]*kT*kT*dA*dT*dT*dA*dG*d[5mC]*dA*d[5mC]*d[5mC]*dT*kG*kG*kG; antisense) [Compound 1075587]
[4]
  YAP1 (% UTC): 50 % UTC

## 1075616 (kG*kT*kA*dA*dA*dA*d[5mC]*d[5mC]*dG*dA*dT*dT*dT*kT*kT*k[5mC]; antisense) [Compound 1075616]
[5]
  YAP1 (% UTC): 46 % UTC

## 1075683 (k[5mC]*kT*kG*dA*dA*dA*dA*dA*dG*dT*dT*dA*dT*kG*k[5mC]*k[5mC]; antisense) [Compound 1075683]
[4]
  YAP1 (% UTC): 56 % UTC

## 1076000 (k[5mC]*k[5mC]*kT*dA*dA*dT*dA*dT*dG*dA*d[5mC]*dT*d[5mC]*k[5mC]*kT*kT; antisense) [Compound 1076000]
[5]
  YAP1 (% UTC): 4 % UTC

## 1075264 (antisense kG*kA*kA*dT*dA*dA*dT*dA*dT*dG*d[5mC]*dA*dG*kA*kA*k[5mC]) [Compound 1075264]
[5]
  YAP1 (% UTC): 53 % UTC

## 1076193 (kT*kT*kA*dA*dT*dA*d[5mC]*dA*d[5mC]*dA*dG*dG*dT*kT*k[5mC]*k[5mC]; antisense) [Compound 1076193]
[3]
  YAP1 (% UTC): 29 % UTC

## 1074752 (k[5mC]*kA*kT*dT*dA*dG*dG*dA*dA*d[5mC]*dA*dA*dG*kG*kA*k[5mC]; antisense) [Compound 1074752]
[5]
  YAP1 (% UTC): 10 % UTC

## 1075779 (kG*kT*kA*dT*dT*dA*d[5mC]*dA*dA*dA*d[5mC]*dT*dG*kA*kT*kT; antisense) [Compound 1075779]
[4]
  YAP1 (% UTC): 28 % UTC

## 1075744 (kT*kT*k[5mC]*dG*dG*dG*dT*dT*dA*dG*d[5mC]*dA*dG*kA*k[5mC]*kT; antisense) [Compound 1075744]
[5]
  YAP1 (% UTC): 6 % UTC

## 1074243 (antisense kT*k[5mC]*kT*dG*dA*d[5mC]*d[5mC]*dA*dG*dA*dA*dG*dA*kT*kG*kT) [Compound 1074243]
[4]
  YAP1 (% UTC): 60 % UTC

## 1076194 (kT*kT*kT*dA*dA*dT*dA*d[5mC]*dA*d[5mC]*dA*dG*dG*kT*kT*k[5mC]; antisense) [Compound 1076194]
[2]
  YAP1 (% UTC): 22 % UTC

## 1075843 (k[5mC]*kA*kT*dG*dA*dA*dA*dT*dG*dA*dT*dG*dG*kA*kA*k[5mC]; antisense) [Compound 1075843]
[4]
  YAP1 (% UTC): 47 % UTC

## 1075329 (kA*kG*kG*dG*dA*dA*dA*dA*d[5mC]*dT*dT*dT*dG*k[5mC]*kA*k[5mC]; antisense) [Compound 1075329]
[3]
  YAP1 (% UTC): 26 % UTC

## 1074467 (k[5mC]*kA*k[5mC]*d[5mC]*dG*dA*d[5mC]*d[5mC]*d[5mC]*dT*dG*d[5mC]*d[5mC]*kA*kA*kA; antisense) [Compound 1074467]
[4]
  YAP1 (% UTC): 31 % UTC

## 1076418 (kT*kA*kT*dA*dA*dT*dA*dA*d[5mC]*d[5mC]*d[5mC]*dA*dT*kT*kG*kT; antisense) [Compound 1076418]
[2]
  YAP1 (% UTC): 63 % UTC

## 1075328 (k[5mC]*kT*k[5mC]*dG*d[5mC]*dA*dA*dA*dG*d[5mC]*d[5mC]*dT*d[5mC]*kT*kT*k[5mC]; antisense) [Compound 1075328]
[5]
  YAP1 (% UTC): 21 % UTC

## 1074614 (DNA kT*k[5mC]*kA*dT*dA*dG*d[5mC]*dT*dT*dA*dT*dA*dT*kT*kG*kA; antisense) [compound 1074614]
[1]
  YAP1 (% UTC): 49 % UTC

## 1075811 (kA*kT*kT*dG*dT*dA*dG*d[5mC]*dA*dA*dT*dA*dG*kA*kG*kT; antisense) [Compound 1075811]
[4]
  YAP1 (% UTC): 10 % UTC

## 1075638 (antisense kA*kT*kT*dA*dA*d[5mC]*d[5mC]*dA*dG*dA*dA*dG*d[5mC]*k[5mC]*kT*kG) [compound 1075638]
[1]
  YAP1 (% UTC): 79 % UTC

## 1075457 (antisense kA*kG*kT*dA*dA*dT*dA*dT*dG*dT*dA*d[5mC]*dA*kT*kG*kG) [Compound 1075457]
[3]
  YAP1 (% UTC): 5 % UTC

## 1074819 (kA*kA*kG*d[5mC]*dA*d[5mC]*dT*dG*dA*dA*dT*dA*dT*kT*kG*k[5mC]; antisense) [Compound 1074819]
[4]
  YAP1 (% UTC): 33 % UTC

## 1074337 (antisense kG*kA*kG*dT*d[5mC]*d[5mC]*d[5mC]*dA*d[5mC]*d[5mC]*dA*dT*d[5mC]*k[5mC]*kT*kG) [Compound 1074337]
[3]
  YAP1 (% UTC): 10 % UTC
